Key:
Format in all cases: cell-based
[1] = test system: Staphylococcus aureus 446; experiment: MIC, standard broth micro-dilution assay, SA 446; set-up: unit not given here
Method: (§1) The antibacterial efficacy of the present compounds is illustrated by Table II. The minimal inhibitory concentrations (MICs) were determined using a standard broth micro-dilution assay.

[2] = test system: Enterococcus faecium and faecalis (SENSITIVE); experiment: MIC, standard broth micro-dilution assay, SENSITIVE enterococci; set-up: unit not given here; conditions: geometric mean of 4-6 isolates
Method: as §1

[3] = test system: Staphylococcus aureus 447; experiment: MIC, standard broth micro-dilution assay, SA 447; set-up: unit not given here
Method: as §1

[4] = test system: Staphylococcus aureus 489; experiment: MIC, standard broth micro-dilution assay, SA 489; set-up: unit not given here
Method: as §1

[5] = test system: Enterococcus faecium and faecalis (RESISTANT); conditions: geometric mean of 4-6 isolates
Method: as §1

[6] = test system: Staphylococcus epidermidis 270; experiment: MIC, standard broth micro-dilution assay, SE 270; set-up: unit not given here
Method: as §1

[7] = test system: Staphylococcus haemolyticus 105; experiment: MIC, standard broth micro-dilution assay, SH 105; set-up: unit not given here
Method: as §1

[8] = test system: Streptococcus pyogenes C203; experiment: MIC, standard broth micro-dilution assay, SPY C203; set-up: unit not given here
Method: as §1

[9] = test system: Staphylococcus haemolyticus 415; experiment: MIC, standard broth micro-dilution assay, SH 415; set-up: unit not given here
Method: as §1

[10] = test system: Streptococcus pneumoniae P1; experiment: MIC, standard broth micro-dilution assay, SPN P1; set-up: unit not given here
Method: as §1

Row | Structure (SMILES) | Minimal Inhibitory Concentration (MIC) SA 446 [1] | Minimal Inhibitory Concentration (MIC) SENSITIVE [2] | Minimal Inhibitory Concentration (MIC) SA 447 [3] | Minimal Inhibitory Concentration (MIC) SA 489 [4] | Minimal Inhibitory Concentration (MIC) RESISTANT [5] | Minimal Inhibitory Concentration (MIC) SE 270 [6] | Minimal Inhibitory Concentration (MIC) SH 105 [7] | Minimal Inhibitory Concentration (MIC) SPY C203 [8] | Minimal Inhibitory Concentration (MIC) SH 415 [9] | Minimal Inhibitory Concentration (MIC) SPN P1 [10]
1 | C[C@@H]1O[C@@H](O[C@@H]2c3ccc(c(Cl)c3)Oc3cc4cc(c3O[C@@H]3O[C@H](CO)[C@@H](O)[C@H](O)[C@H]3O[C@H]3C[C@](C)(NCc5ccc(-c6ccccc6)cc5)[C@@H](O)[C@H](C)O3)Oc3ccc(cc3Cl)[C@@H](O)[C@@H](NCc3ccc(-c5ccccc5)cc3)C(=O)N[C@@H](CC(N)=O)C(=O)N[C@H]4C(=O)N[C@H]3C(=O)N[C@@H]2C(=O)N[C@H](C(=O)O)c2cc(O)cc(O)c2-c2cc3ccc2O)C[C@](C)(N)[C@H]1O [Example 4, N^1,N^DISACC -BIS(p-PHENYLBENZYL)-DESLEUCYL-A82846B] | 4 | 21 | 2 | 2 | 53 | 2 | 2 | ≤ .06 | 2 | ≤ .06
2 | C[C@@H]1O[C@@H](O[C@@H]2c3ccc(c(Cl)c3)Oc3cc4cc(c3O[C@@H]3O[C@H](CO)[C@@H](O)[C@H](O)[C@H]3O[C@H]3C[C@](C)(NCCCCCCCCCCc5ccccc5)[C@@H](O)[C@H](C)O3)Oc3ccc(cc3Cl)[C@@H](O)[C@@H](NCCCCCCCCCCc3ccccc3)C(=O)N[C@@H](CC(N)=O)C(=O)N[C@H]4C(=O)N[C@H]3C(=O)N[C@@H]2C(=O)N[C@H](C(=O)O)c2cc(O)cc(O)c2-c2cc3ccc2O)C[C@](C)(N)[C@H]1O [Example 16, N^1,N^DISACC -BIS(10 PHENYL-n-DECYL)-DESLEUCYL-A82846B] | > 64 | > 11 | > 64 | 64 | > 128 | > 64 | > 64 | 8 | > 64 | 16
3 | C[C@@H]1O[C@@H](O[C@@H]2c3ccc(c(Cl)c3)Oc3cc4cc(c3O[C@@H]3O[C@H](CO)[C@@H](O)[C@H](O)[C@H]3O[C@H]3C[C@](C)(NCc5ccc(O)cc5)[C@@H](O)[C@H](C)O3)Oc3ccc(cc3Cl)[C@@H](O)[C@@H](NCc3ccc(O)cc3)C(=O)N[C@@H](CC(N)=O)C(=O)N[C@H]4C(=O)N[C@H]3C(=O)N[C@@H]2C(=O)N[C@H](C(=O)O)c2cc(O)cc(O)c2-c2cc3ccc2O)C[C@](C)(N)[C@H]1O [Example 9, N^1,N^DISACC -BIS(p-HYDROXYBENZYL)-DESLEUCYL-A82846B] | 16 | > 128 | 16 | 16 | > 128 | 32 | 32 | 16 | 32 | 32
4 | C[C@@H]1O[C@@H](O[C@@H]2c3ccc(c(Cl)c3)Oc3cc4cc(c3O[C@@H]3O[C@H](CO)[C@@H](O)[C@H](O)[C@H]3O[C@H]3C[C@](C)(NCCCCCCc5ccccc5)[C@@H](O)[C@H](C)O3)Oc3ccc(cc3Cl)[C@@H](O)[C@@H](NCCCCCCc3ccccc3)C(=O)N[C@@H](CC(N)=O)C(=O)N[C@H]4C(=O)N[C@H]3C(=O)N[C@@H]2C(=O)N[C@H](C(=O)O)c2cc(O)cc(O)c2-c2cc3ccc2O)C[C@](C)(N)[C@H]1O [Example 15, N^1,N^DISACC -BIS(6-PHENYL-n-HEXYL) -DESLEUCYL-A82846B] | 4 | 6 | 2 | 2 | 8 | 2 | 1 | 0.125 | 2 | 0.5
5 | CCCCCCCCOc1ccc(CN[C@H]2C(=O)N[C@@H](CC(N)=O)C(=O)N[C@H]3C(=O)N[C@H]4C(=O)N[C@H](C(=O)N[C@H](C(=O)O)c5cc(O)cc(O)c5-c5cc4ccc5O)[C@H](O[C@H]4C[C@](C)(N)[C@@H](O)[C@H](C)O4)c4ccc(c(Cl)c4)Oc4cc3cc(c4O[C@@H]3O[C@H](CO)[C@@H](O)[C@H](O)[C@H]3O[C@H]3C[C@](C)(N)[C@@H](O)[C@H](C)O3)Oc3ccc(cc3Cl)[C@H]2O)cc1 [Example 23, N^1 -(p-(n-OCTYLOXY)-BENZYL)DESLEUCYL-A82846B] | 8 | 9.2 | 4 | 4 | 11 | 4 | 4 | 0.25 | 8 | 1
6 | CCCCCCN[C@H]1C(=O)N[C@@H](CC(N)=O)C(=O)N[C@H]2C(=O)N[C@H]3C(=O)N[C@H](C(=O)N[C@H](C(=O)O)c4cc(O)cc(O)c4-c4cc3ccc4O)[C@H](O[C@H]3C[C@](C)(N)[C@@H](O)[C@H](C)O3)c3ccc(c(Cl)c3)Oc3cc2cc(c3O[C@@H]2O[C@H](CO)[C@@H](O)[C@H](O)[C@H]2O[C@H]2C[C@](C)(NCCCCCC)[C@@H](O)[C@H](C)O2)Oc2ccc(cc2Cl)[C@H]1O [Example 7, N^1,N^DISACC -DIHEXYLDESLEUCYL-A82846B] | 16 | 111 | 8 | 8 | > 128 | 16 | 4 | 8 | 8 | 8
7 | C[C@@H]1O[C@@H](O[C@@H]2c3ccc(c(Cl)c3)Oc3cc4cc(c3O[C@@H]3O[C@H](CO)[C@@H](O)[C@H](O)[C@H]3O[C@H]3C[C@](C)(NCc5ccc(-c6ccccc6)cc5)[C@@H](O)[C@H](C)O3)Oc3ccc(cc3Cl)[C@@H](O)[C@@H](NCc3ccccc3)C(=O)N[C@@H](CC(N)=O)C(=O)N[C@H]4C(=O)N[C@H]3C(=O)N[C@@H]2C(=O)N[C@H](C(=O)O)c2cc(O)cc(O)c2-c2cc3ccc2O)C[C@](C)(N)[C@H]1O [Example 5, N^1 -BENZYL-N^DISACC -(p-PHENYLBENZYL)-DESLEUCYL-A82846B] | 2 | 9.2 | 2 | 2 | 23 | 2 | 2 | 0.125 | 2 | 0.5
8 | CCCCCCN[C@H]1C(=O)N[C@@H](CC(N)=O)C(=O)N[C@H]2C(=O)N[C@H]3C(=O)N[C@H](C(=O)N[C@H](C(=O)O)c4cc(O)cc(O)c4-c4cc3ccc4O)[C@H](O[C@H]3C[C@](C)(N)[C@@H](O)[C@H](C)O3)c3ccc(c(Cl)c3)Oc3cc2cc(c3O[C@@H]2O[C@H](CO)[C@@H](O)[C@H](O)[C@H]2O[C@H]2C[C@](C)(N)[C@@H](O)[C@H](C)O2)Oc2ccc(cc2Cl)[C@H]1O [Example 10, N^1 -n-HEXYLDESLEUCYL-A82846B] | 32 | > 128 | 32 | 16 | > 128 | 32 | 64 | 16 | 64 | 32

Reference: patent US5977063A, “Alkylated hexapeptides” (Eli Lilly and Company, priority 1998, dated 1999)
